Experiment [1] deals with normal Sprague Dawley rats. Kind of experiment: Mixed carbohydrate tolerance test in normal rats. It counts as in vivo, rat. Here is the method: Study on normal rats. The efficacy of mizagliflozin (decreasing plasma glucose levels) in normal Sprague Dawley rats was determined in a mixed carbohydrate tolerance test. Normal rats were fasted for 16 hours and then given an oral loading dose of 2.0 g/kg of mixed carbohydrate (soluble starch:sucrose:lactose monohydrate=6:3:1). Mizagliflozin (KGA-3235 sebacate), or water as the vehicle control, was then administered as a single oral dose to groups of male rats (n=8/group) at doses of 0.03, 0.1, 0.3, and 1 mg/kg. Voglibose, a glucosidase inhibitor similar to acarbose, was used as a positive control and was administered as a single oral dose to male rats (n=8/group) at dose levels of 0.1, 0.3 and 1 mg/kg. Blood samples were collected just prior to loading with mixed carbohydrate and at 0.5, 1, 2, 3, 4, and 6 hours after loading.

In experiment [2] the test system is STZ-induced diabetic rats. The experiment can be described thus: Mixed carbohydrate tolerance test in STZ-induced diabetic rats (Example 3). The class given is in vivo, rat. The note with it: mixed carbohydrate 2.0 g/kg. Here is the method: Study in diabetic rats. Mizagliflozin was tested in a rat model for diabetes and efficacy, as measured by a relative decrease in plasma glucose, was determined using a mixed carbohydrate tolerance test. Diabetic model rats were prepared by intravenous administration of streptozotocin (STZ) to induce diabetes. Seven days after STZ administration, rats were fasted for 16 hours and then given an oral loading dose of 2.0 g/kg of mixed carbohydrate (soluble starch:sucrose:lactose monohydrate=6:3:1). Mizagliflozin, or water as the vehicle control, was then administered as a single oral dose to groups of male rats (n=8/group) at doses of 0.01, 0.03, 0.1, and 0.3 mg/kg. Another control group was given vehicle and consisted of normal male Sprague Dawley rats that were not administered STZ. Voglibose was also administered as a single oral dose to male rats (n=8/group) at dose levels of 0.03, 0.1 and 0.3 mg/kg. Blood samples were collected just prior to loading with mixed carbohydrate and at 0.5, 1, 2, 3, 4, and 6 hours after loading. Plasma glucose concentrations were determined and ΔAUC0-1 h for plasma glucose was calculated.

The subject of experiment [3] is STZ-induced diabetic rats. The experiment can be described thus: Oral glucose tolerance test in STZ-induced diabetic rats (Example 4). It counts as in vivo, rat. How it is done: Study in diabetic rats using oral glucose tolerance test. Efficacy of mizagliflozin was tested in a rat model for diabetes using an oral glucose tolerance test (OGTT). Diabetic model rats were prepared by intravenous administration of STZ to induce diabetes. Seven days after STZ administration, rats were fasted for 16 hours and then given an oral loading dose of 2.0 g/kg of glucose. Mizagliflozin, or water as the vehicle control, was then administered as a single oral dose to groups of male rats (n=8/group) at doses of 0.03, 0.1, 0.3, and 1 mg/kg. Another control group was given vehicle and consisted of normal male Sprague Dawley rats that were not administrated STZ. Voglibose was also administered as a single oral dose to male rats (n=8/group) at dose levels of 0.1, 0.3 and 1 mg/kg. Blood samples were collected just prior to loading with mixed carbohydrate and at 0.5, 1, 2, 3, 4, and 6 hours after loading. Plasma glucose concentrations were determined and ΔAUC0-1 h for plasma glucose was calculated.

For a further experiment, the target named is T1, rat SGLT2 (Rattus norvegicus, UniProt P53792).
T1 construct: expressed in transfected cells; host or cells: COS-7
T1 sequence (P53792 1-670): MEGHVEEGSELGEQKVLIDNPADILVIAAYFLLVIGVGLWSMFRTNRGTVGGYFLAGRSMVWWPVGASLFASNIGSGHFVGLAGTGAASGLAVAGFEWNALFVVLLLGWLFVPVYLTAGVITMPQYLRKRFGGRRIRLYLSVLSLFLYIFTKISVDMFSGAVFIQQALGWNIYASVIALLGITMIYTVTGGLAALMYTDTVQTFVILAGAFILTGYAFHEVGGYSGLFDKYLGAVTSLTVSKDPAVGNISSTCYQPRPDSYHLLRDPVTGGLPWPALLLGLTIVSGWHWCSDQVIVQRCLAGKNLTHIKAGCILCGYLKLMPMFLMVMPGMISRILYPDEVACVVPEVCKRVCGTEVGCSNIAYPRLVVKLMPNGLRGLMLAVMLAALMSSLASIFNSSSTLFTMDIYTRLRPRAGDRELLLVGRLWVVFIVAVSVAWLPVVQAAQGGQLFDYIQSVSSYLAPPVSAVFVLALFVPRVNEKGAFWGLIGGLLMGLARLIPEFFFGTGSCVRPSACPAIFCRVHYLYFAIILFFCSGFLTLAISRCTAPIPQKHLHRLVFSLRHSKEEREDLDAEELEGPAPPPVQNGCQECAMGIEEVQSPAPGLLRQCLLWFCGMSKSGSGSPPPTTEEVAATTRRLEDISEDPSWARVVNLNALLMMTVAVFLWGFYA
Kind of experiment: Inhibition of radiolabeled α-MG uptake into COS-7 cells transfected with rat SGLT2 (Dixon plot). It counts as cell-based. The note with it: α-MG 0.3 and 1 mM. How it is done: Selective inhibition study. Inhibition constants (Ki) of mizagliflozin for rat and human SGLT1 and SGLT2 were determined measuring concentration-dependent effects of test compound on uptake of radiolabeled methyl-α-D-glucopyranoside (α-MG) into COS-7 cells transiently transfected with cloned SGLT1 or SGLT2. Mizagliflozin was assessed at concentrations from 1 to 30 μM and 3 to 100 μM for human and rat SGLT2, respectively. It was assessed at concentrations from 30 nM to 1 μM and 10 to 30 nM for human and rat SGLT1, respectively. α-MG test concentrations were 0.3 and 1 mM. Data were analyzed and Ki determined using Dixon plots of initial transport rates. […] Inhibition constants were also determined for human SGLT1 and SGLT2.

SMILES strings stand for the structures.

On to `OCC(CO)N[C@H]1C[C@](O)(CO)[C@@H](O)[C@H](O)[C@H]1O` [voglibose, reference compound], for which, in experiment [1] (Rattus norvegicus, read-out: ED50 calculated from mean ΔAUC0-1 h (% of control), mixed carbohydrate 2.0 g/kg, single oral dose), the ED50 is 0.32 mg/kg. The “ΔAUC0-1 h of plasma glucose versus vehicle control” value in experiment [1] (mixed carbohydrate 2.0 g/kg), in experiment [2] and in experiment [3] (glucose 2.0 g/kg) was “significant decrease” each time. Also, in experiment [3] (OGTT, maximum dose 1 mg/kg), the “ΔAUC0-1 h relative to control group” value is on record as “not half or less than half that in the control group”.

What is called Ki is a dissociation constant, usually derived from enzyme kinetics or from competition with a known ligand. As to `O=C(CCc1ccc(O)cc1)c1c(O)cc(O)cc1O[C@@H]1O[C@H](CO)[C@@H](O)[C@H](O)[C@H]1O` [phlorizin, reference compound], the Ki on rat SGLT2 is 41.1 nM.
